Measurements as given in paper PMC9250534, “Synthesis and direct assay of large macrocycle diversities by combinatorial late-stage modification at picomole scale” (Nature Communications, 2022).
Numbered stars: 1 amine (or outer) side, 2 acyl side, 3 side chain; on linkers, the order of the positions; unused ones are H or OH. Bridge positions count the residues as written; N and C are the ends. Square brackets hold non-standard residues; d marks the D form. Peptide text beside a SMILES is read from it. * marks the point of attachment. 2Thenoyl(5-Cl) = O=C(c1ccc(Cl)s1)*; Benzoyl(4-Cl) = O=C(c1ccc(Cl)cc1)*; Cysteamide = C(CS[*:3])N[*:1]; X1 = O=C(/C=C/c1ccccc1)*; Api = NC1(C(=O)O)CCNCC1; Mpa = O=C(O)CCS

Molecular target: MDM2 (Homo sapiens, UniProt Q00987)
Assay: MDM2 binding screen: displacement of fluorescent p53 peptide probe FP53 (fluorescence polarization)
Conditions: for fraction fluorescent probe displaced, Screen: initial screen; for fraction fluorescent probe displaced, Screen / fraction fluorescent probe displaced, Replicate: crude macrocycle reactions
In short: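 Macrocycle reaction products at a final 10 µM were tested for displacement of a p53-based fluorescent peptide from human MDM2. Fluorescence anisotropy (ex 485/em 535 nm) was read once per macrocycle at 25 °C.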

MDM2, sequence (Q00987 whole entry): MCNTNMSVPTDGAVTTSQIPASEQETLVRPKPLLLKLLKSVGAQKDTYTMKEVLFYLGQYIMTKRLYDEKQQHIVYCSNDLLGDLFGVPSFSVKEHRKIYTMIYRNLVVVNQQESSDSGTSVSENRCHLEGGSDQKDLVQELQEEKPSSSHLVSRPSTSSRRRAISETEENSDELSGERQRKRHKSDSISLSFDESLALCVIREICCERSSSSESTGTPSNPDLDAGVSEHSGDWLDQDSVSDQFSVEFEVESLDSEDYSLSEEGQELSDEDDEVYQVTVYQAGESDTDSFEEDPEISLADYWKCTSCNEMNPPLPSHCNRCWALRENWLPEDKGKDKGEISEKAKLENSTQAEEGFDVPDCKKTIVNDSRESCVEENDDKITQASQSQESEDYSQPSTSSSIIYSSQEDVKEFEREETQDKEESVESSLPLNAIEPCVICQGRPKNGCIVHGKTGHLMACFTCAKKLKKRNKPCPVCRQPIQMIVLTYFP

Compound	fraction fluorescent probe displaced, Screen (Acid 14)	fraction fluorescent probe displaced, Replicate (Acid 14, replicate)	fraction fluorescent probe displaced, Screen (Acid 91)	fraction fluorescent probe displaced, Replicate (Acid 91, replicate)	further results
O=C1CCSSCCNC(=O)C(Cc2ccccc2)NC(=O)C2CCCN2C(=O)C2(CCN(C(=O)c3ccc(Cl)s3)CC2)N1 (stereo not shown) [X D6 B1 F Acid 14] ([Mpa][Api](2Thenoyl(5-Cl))PF-Cysteamide; disulfide 1-C; configuration not given here)	-0.00483	0.0465	–	–	–
O=C1CCSSCCNC(=O)[C@H](Cc2ccccc2)NC(=O)[C@@H]2CCCN2C(=O)C2(CCN(C(=O)c3ccc(Cl)cc3)CC2)N1 [X D6 B1 F Acid 25] ([Mpa][Api](Benzoyl(4-Cl))PF-Cysteamide; disulfide 1-C)	–	–	–	–	fraction fluorescent probe displaced, Screen (Acid 25): 0.0569; fraction fluorescent probe displaced, Replicate (Acid 25, replicate): 0.07
O=C1CCSSCCNC(=O)[C@H](Cc2ccccc2)NC(=O)[C@@H]2CCCN2C(=O)C2(CCN(C(=O)/C=C/c3ccccc3)CC2)N1 [X D6 B1 F Acid 91] ([Mpa][Api](X1)PF-Cysteamide; disulfide 1-C)	–	–	-0.08	-0.11	–
O=C1CCSSCCNC(=O)[C@H](Cc2c[nH]c3ccccc23)NC(=O)[C@@H]2CCCN2C(=O)C2(CCN(C(=O)c3ccc(Cl)s3)CC2)N1 [X D6 B1 W Acid 14] ([Mpa][Api](2Thenoyl(5-Cl))PW-Cysteamide; disulfide 1-C)	0.08	0.07	–	–	–
O=C1CCSSCCNC(=O)[C@H](Cc2c[nH]c3ccccc23)NC(=O)[C@@H]2CCCN2C(=O)C2(CCN(C(=O)/C=C/c3ccccc3)CC2)N1 [X D6 B1 W Acid 91] ([Mpa][Api](X1)PW-Cysteamide; disulfide 1-C)	–	–	-0.05	0.04	–
O=C1CCNC(=O)C2(CCN(C(=O)c3ccc(Cl)s3)CC2)NC(=O)CCSSCCNC(=O)[C@H](Cc2ccccc2)N1 [X D6 B2 F Acid 14]	0.08	0.0465	–	–	–
O=C1CCNC(=O)C2(CCN(C(=O)c3ccc(Cl)cc3)CC2)NC(=O)CCSSCCNC(=O)[C@H](Cc2ccccc2)N1 [X D6 B2 F Acid 25]	–	–	–	–	fraction fluorescent probe displaced, Screen (Acid 25): 0.0244; fraction fluorescent probe displaced, Replicate (Acid 25, replicate): 0.0211
O=C1CCNC(=O)C2(CCN(C(=O)/C=C/c3ccccc3)CC2)NC(=O)CCSSCCNC(=O)[C@H](Cc2ccccc2)N1 [X D6 B2 F Acid 91]	–	–	-0.0241	-0.00827	–
O=C1CCNC(=O)C2(CCN(C(=O)c3ccc(Cl)s3)CC2)NC(=O)CCSSCCNC(=O)[C@H](Cc2c[nH]c3ccccc23)N1 [X D6 B2 W Acid 14]	0.17	0.20	–	–	–
O=C1CCNC(=O)C2(CCN(C(=O)/C=C/c3ccccc3)CC2)NC(=O)CCSSCCNC(=O)[C@H](Cc2c[nH]c3ccccc23)N1 [X D6 B2 W Acid 91]	–	–	0.19	0.09	–
O=C1CCSSCCNC(=O)[C@H](Cc2ccccc2)NC(=O)[C@H]2CCCN(C2)C(=O)C2(CCN(C(=O)c3ccc(Cl)s3)CC2)N1 [X D6 B4 F + Acid 14]	–	–	–	–	fraction fluorescent probe displaced (crude reaction of macrocycle scaffold with Acid 14, (initial screen)): -0.00483; fraction fluorescent probe displaced (crude reaction of macrocycle scaffold with Acid 14, replicate): 0.10
O=C1CCSSCCNC(=O)[C@H](Cc2ccccc2)NC(=O)[C@H]2CCCN(C2)C(=O)C2(CCN(C(=O)c3ccc(Cl)cc3)CC2)N1 [X D6 B4 F + Acid 25]	–	–	–	–	fraction fluorescent probe displaced (crude reaction of macrocycle scaffold with Acid 25, (initial screen)): 0.09; fraction fluorescent probe displaced (crude reaction of macrocycle scaffold with Acid 25, replicate): 0.15
O=C1CCSSCCNC(=O)[C@H](Cc2c[nH]c3ccccc23)NC(=O)[C@H]2CCCN(C2)C(=O)C2(CCN(C(=O)c3ccc(Cl)s3)CC2)N1 [X D6 B4 W Acid 14]	0.17	0.25	–	–	–
O=C1CCSSCCNC(=O)C(Cc2c[nH]c3ccccc23)NC(=O)C2CCCN(C2)C(=O)C2(CCN(C(=O)C=Cc3ccccc3)CC2)N1 (stereo not shown) [X D6 B4 W Acid 91]	–	–	0.11	0.0168	–
O=C1CCSSCCNC(=O)[C@H](Cc2ccccc2)NC(=O)c2cccc(c2)CNC(=O)C2(CCN(C(=O)/C=C/c3ccccc3)CC2)N1 [X D6 B5 F Acid 91]	–	–	-0.05	-0.0333	–
O=C1CCSSCCNC(=O)C(Cc2c[nH]c3ccccc23)NC(=O)c2cccc(c2)CNC(=O)C2(CCN(C(=O)c3ccc(Cl)s3)CC2)N1 (stereo not shown) [X D6 B5 W Acid 14]	0.23	0.25	–	–	–
O=C1CCSSCCNC(=O)[C@H](Cc2c[nH]c3ccccc23)NC(=O)c2cccc(c2)CNC(=O)C2(CCN(C(=O)c3ccc(Cl)cc3)CC2)N1 [X D6 B5 W Acid 25]	–	–	–	–	fraction fluorescent probe displaced, Screen (Acid 25): 0.25; fraction fluorescent probe displaced, Replicate (Acid 25, replicate): 0.22
O=C1CCSSCCNC(=O)[C@@H]2CCCN2C(=O)[C@H](Cc2ccccc2)NC(=O)C2(CCN(C(=O)c3ccc(Cl)s3)CC2)N1 [X D6 F B1 Acid 14] ([Mpa][Api](2Thenoyl(5-Cl))FP-Cysteamide; disulfide 1-C)	0.053	0.07	–	–	–
O=C1CCSSCCNC(=O)[C@@H]2CCCN2C(=O)[C@H](Cc2ccccc2)NC(=O)C2(CCN(C(=O)c3ccc(Cl)cc3)CC2)N1 [X D6 F B1 Acid 25] ([Mpa][Api](Benzoyl(4-Cl))FP-Cysteamide; disulfide 1-C)	–	–	–	–	fraction fluorescent probe displaced, Screen (Acid 25): 0.15; fraction fluorescent probe displaced, Replicate (Acid 25, replicate): 0.22
O=C1CCSSCCNC(=O)[C@H]2CCCN(C2)C(=O)[C@H](Cc2ccccc2)NC(=O)C2(CCN(C(=O)/C=C/c3ccccc3)CC2)N1 [X D6 F B4 + Acid 91]	–	–	–	–	fraction fluorescent probe displaced (crude reaction of macrocycle scaffold with Acid 91, (initial screen)): 0.03; fraction fluorescent probe displaced (crude reaction of macrocycle scaffold with Acid 91, replicate): -0.00827
O=C1CCSSCCNC(=O)[C@@H]2CCCN2C(=O)[C@H](Cc2c[nH]c3ccccc23)NC(=O)C2(CCN(C(=O)c3ccc(Cl)cc3)CC2)N1 [X D6 W B1 Acid 25] ([Mpa][Api](Benzoyl(4-Cl))WP-Cysteamide; disulfide 1-C)	–	–	–	–	fraction fluorescent probe displaced, Screen (Acid 25): 0.25; fraction fluorescent probe displaced, Replicate (Acid 25, replicate): 0.20
O=C1CCNC(=O)[C@H](Cc2c[nH]c3ccccc23)NC(=O)C2(CCN(C(=O)c3ccc(Cl)cc3)CC2)NC(=O)CCSSCCN1 [X D6 W B2 Acid 25]	–	–	–	–	fraction fluorescent probe displaced, Screen (Acid 25): 0.09; fraction fluorescent probe displaced, Replicate (Acid 25, replicate): 0.10
O=C1CCSSCCNC(=O)[C@H]2CCCN(C2)C(=O)[C@H](Cc2c[nH]c3ccccc23)NC(=O)C2(CCN(C(=O)c3ccc(Cl)cc3)CC2)N1 [X D6 W B4 Acid 25]	–	–	–	–	fraction fluorescent probe displaced, Screen (Acid 25): 0.28; fraction fluorescent probe displaced, Replicate (Acid 25, replicate): 0.22
O=C1NCCSSCCC(=O)N2CCN(C(=O)c3ccc(Cl)cc3)CC2C(=O)N2CCCC2C(=O)NC1Cc1ccccc1 (stereo not shown) [X D7 B1 F Acid 25]	–	–	–	–	fraction fluorescent probe displaced, Screen (Acid 25): 0.0569; fraction fluorescent probe displaced, Replicate (Acid 25, replicate): 0.12

Continued, in another order:

fraction fluorescent probe displaced, Screen (Acid 14)	fraction fluorescent probe displaced, Replicate (Acid 14, replicate)	fraction fluorescent probe displaced, Screen (Acid 91)	fraction fluorescent probe displaced, Replicate (Acid 91, replicate)	Compound	further results
–	–	-0.05	-0.08	O=C1CCSSCCNC(=O)[C@@H]2CCCN2C(=O)[C@H](Cc2ccccc2)NC(=O)C2(CCN(C(=O)/C=C/c3ccccc3)CC2)N1 [X D6 F B1 Acid 91] ([Mpa][Api](X1)FP-Cysteamide; disulfide 1-C)	–
0.0241	0.07	–	–	O=C1CCNC(=O)[C@H](Cc2ccccc2)NC(=O)C2(CCN(C(=O)c3ccc(Cl)s3)CC2)NC(=O)CCSSCCN1 [X D6 F B2 Acid 14]	–
–	–	0.14	0.04	O=C1CCNC(=O)[C@H](Cc2ccccc2)NC(=O)C2(CCN(C(=O)/C=C/c3ccccc3)CC2)NC(=O)CCSSCCN1 [X D6 F B2 Acid 91]	–
-0.0337	0.12	–	–	O=C1CCSSCCNC(=O)c2cccc(c2)CNC(=O)[C@H](Cc2ccccc2)NC(=O)C2(CCN(C(=O)c3ccc(Cl)s3)CC2)N1 [X D6 F B5 Acid 14]	–
–	–	-0.05	-0.00827	O=C1CCSSCCNC(=O)c2cccc(c2)CNC(=O)C(Cc2ccccc2)NC(=O)C2(CCN(C(=O)C=Cc3ccccc3)CC2)N1 (stereo not shown) [X D6 F B5 Acid 91]	–
0.11	0.07	–	–	O=C1CCSSCCNC(=O)[C@@H]2CCCN2C(=O)[C@H](Cc2c[nH]c3ccccc23)NC(=O)C2(CCN(C(=O)c3ccc(Cl)s3)CC2)N1 [X D6 W B1 Acid 14] ([Mpa][Api](2Thenoyl(5-Cl))WP-Cysteamide; disulfide 1-C)	–
–	–	0.08	0.04	O=C1CCSSCCNC(=O)[C@@H]2CCCN2C(=O)[C@H](Cc2c[nH]c3ccccc23)NC(=O)C2(CCN(C(=O)/C=C/c3ccccc3)CC2)N1 [X D6 W B1 Acid 91] ([Mpa][Api](X1)WP-Cysteamide; disulfide 1-C)	–
–	–	0.14	0.07	O=C1CCNC(=O)[C@H](Cc2c[nH]c3ccccc23)NC(=O)C2(CCN(C(=O)/C=C/c3ccccc3)CC2)NC(=O)CCSSCCN1 [X D6 W B2 Acid 91]	–
–	–	0.14	0.07	O=C1CCSSCCNC(=O)[C@H]2CCCN(C2)C(=O)[C@H](Cc2c[nH]c3ccccc23)NC(=O)C2(CCN(C(=O)/C=C/c3ccccc3)CC2)N1 [X D6 W B4 Acid 91]	–
0.11	0.25	–	–	O=C1CCSSCCNC(=O)c2cccc(c2)CNC(=O)C(Cc2c[nH]c3ccccc23)NC(=O)C2(CCN(C(=O)c3ccc(Cl)s3)CC2)N1 (stereo not shown) [X D6 W B5 Acid 14]	–
–	–	-0.05	0.07	O=C1CCSSCCNC(=O)c2cccc(c2)CNC(=O)[C@H](Cc2c[nH]c3ccccc23)NC(=O)C2(CCN(C(=O)/C=C/c3ccccc3)CC2)N1 [X D6 W B5 Acid 91]	–
